Reference: publication PMC2644050 (The Journal of pharmacology and experimental therapeutics, 2008)

Columns and labels:
[1] = molecular target: T1, human muscarinic M4 receptor (CHO M4) (Homo sapiens, UniProt P08173); test: inhibition of forskolin-stimulated cAMP accumulation, [3H]adenine pre-labeling; type: cell-based; conditions: CHO M4 cells, Gi pathway, 10 μM forskolin; agonist
T1 sequence (P08173 1-479): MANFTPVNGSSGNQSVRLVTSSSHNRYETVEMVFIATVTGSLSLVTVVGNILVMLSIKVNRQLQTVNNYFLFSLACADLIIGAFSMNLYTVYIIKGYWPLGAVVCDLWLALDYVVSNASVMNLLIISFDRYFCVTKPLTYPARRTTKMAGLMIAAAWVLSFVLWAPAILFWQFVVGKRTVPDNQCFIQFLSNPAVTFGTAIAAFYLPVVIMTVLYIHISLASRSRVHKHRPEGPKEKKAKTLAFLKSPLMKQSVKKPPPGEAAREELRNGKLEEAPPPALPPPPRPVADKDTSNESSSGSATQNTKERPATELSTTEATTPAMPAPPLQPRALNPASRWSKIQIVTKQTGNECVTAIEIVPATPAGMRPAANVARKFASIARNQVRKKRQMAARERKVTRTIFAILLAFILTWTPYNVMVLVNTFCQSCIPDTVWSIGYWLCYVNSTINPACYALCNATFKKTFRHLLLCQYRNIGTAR

[2] = molecular target: T2, human muscarinic M1 receptor (CHO M1) (Homo sapiens, UniProt P11229); test: stimulation of phosphoinositide hydrolysis, [3H]inositol pre-labeling; type: cell-based
T2 sequence (P11229 1-460): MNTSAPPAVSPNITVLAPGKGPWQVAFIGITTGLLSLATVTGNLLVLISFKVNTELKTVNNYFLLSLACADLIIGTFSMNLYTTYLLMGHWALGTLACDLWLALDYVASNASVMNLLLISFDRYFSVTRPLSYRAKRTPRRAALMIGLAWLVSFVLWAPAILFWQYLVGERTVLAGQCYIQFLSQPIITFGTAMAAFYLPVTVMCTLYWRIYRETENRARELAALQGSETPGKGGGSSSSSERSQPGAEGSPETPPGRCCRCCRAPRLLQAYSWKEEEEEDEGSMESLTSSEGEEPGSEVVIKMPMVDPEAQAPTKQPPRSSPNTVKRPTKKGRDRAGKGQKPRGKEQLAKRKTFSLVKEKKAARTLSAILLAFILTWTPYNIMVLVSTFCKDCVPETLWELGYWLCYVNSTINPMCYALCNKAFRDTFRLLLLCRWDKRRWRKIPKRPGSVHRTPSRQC

SMILES: C[N+](C)(C)CC#CCN1CCCC1=O [oxotremorine-M]
- EC50 (μM) [1]: 0.030 (−7.52 ± .07) μM
- EC50 (μM) [2]: 0.041 (−7.39 ± .05) μM
